{"source": "patent US6906179B2", "about": "“Antibody to SNIP1” (The General Hospital Corporation, priority 1999, dated 2005)", "key": {"endogenous HEF1 [1]": {"test_system": "endogenous HEF1", "test": "TGF-β regulation of endogenous HEF1 in A549 lung carcinoma cells", "type": "cell-based", "description": "In A549 lung carcinoma cells, which predominantly express p115HEF1, a decrease of endogenous p115HEF1 was detected after 15 min exposure to TGF-β. Furthermore, LLnL was able to block the TGF-β induced decrease of endogenous HEF1, indicating the involvement of the proteasome in this event. The change of p105HEF1 in response to TGF-β was also observed, but not as apparent as p115HEF1 due to the very low level of p105HEF1 in this cell line. It was noted that the steady-state level of both p115HEF1 and p105HEF1 increased after 3 hrs of TGF-β stimulation. […] To directly test this, we performed a time-course Northern blot on HEF1 mRNA isolated from A549 cells treated with TGF-β for different time periods. […] Thus, TGF-β down-regulates HEF1 protein level via proteasomal degradation and also induces HEF1 mRNA level via transcriptional activation, which may serve as a negative feedback mechanism to restore HEF1 protein level."}, "endogenous HEF1 [2]": {"test_system": "endogenous HEF1", "test": "TGF-β regulation of endogenous HEF1 in H9 cells, Western blot and pulse chase", "type": "cell-based, human", "description": "The ability of TGF-β to regulate the protein level of endogenous HEF1 in TGF-β responsive cells was tested. The human T lymphoblastoid H9 cells were either not exposed to TGF-β or pre-treated with TGF-β for different time periods. Cells were then harvested at the same time and HEF1 protein level was determined by Western blot using anti-HEF1 antibody. […] The predominant form of HEF1 labeled within the 30 min pulse period is p105HEF1. The pulse-labeled p105HEF1 was reduced to basal level within 60 min in TGF-β-stimulated cells but took more than 120 min in the absence of TGF-β. Thus, TGF-β can enhance HEF1 degradation in native H9 cells."}, "HEF1 mRNA": {"test_system": "HEF1 mRNA", "test": "Induction of HEF1 mRNA in HaCaT cells", "type": "cell-based"}}}
{"substance": "TGF-β", "values": [{"measurement": "exposure after which decrease of endogenous p115HEF1 was detected", "setting": "endogenous HEF1 [1]", "result": 15, "unit": "min"}, {"measurement": "steady-state level of p115HEF1 and p105HEF1", "setting": "endogenous HEF1 [1]; after 3 hrs of TGF-β stimulation", "result": "increased"}, {"measurement": "level of HEF1 mRNA, Northern blot", "setting": "endogenous HEF1 [1]; as early as 1 hr after treatment", "result": "dramatically increased"}, {"measurement": "steady-state levels of p115 and p105 HEF1", "setting": "endogenous HEF1 [2]", "result": "started to decrease after 30 min exposure"}, {"measurement": "time for pulse-labeled p105HEF1 to be reduced to basal level", "setting": "endogenous HEF1 [2]; TGF-β-stimulated, 30 min pulse", "result": "≤ 60", "unit": "min"}, {"measurement": "p105HEF1 level", "setting": "endogenous HEF1 [2]; after 3 hrs of TGF-β treatment", "result": "greatly reduced"}, {"measurement": "p115HEF1 level", "setting": "endogenous HEF1 [2]; after 3 hrs of TGF-β treatment", "result": "almost undetectable"}, {"measurement": "HEF1 mRNA", "setting": "HEF1 mRNA", "result": "induction of HEF1 mRNA"}]}
